We go through three compounds from PMC7561186, “Rational design of balanced dual-targeting antibiotics with limited resistance” (PLoS Biology, 2020).

Values joined by “and” are separate entries in the source; they are usually repeats but may differ in a detail not shown here. Equal entries are not always repeated. Where two headings read alike, the source gives them in different places.

Data set [1] relates to S. aureus Mu50 (VISA) ATCC 700699. The experiment in a line: Neutropenic thigh infection model. Type of data set: in vivo, CD-1 mice. To be noted: for Log CFU/g thigh: neutropenic thigh infection, Staphylococcus aureus Mu50 ATCC 700699 (VISA), individual animals. As to the method: Neutropenic mouse thigh infection experiments were performed on female CD-1 mice (Charles River Laboratories, USA). To induce neutropenia, mice received 2 doses of cyclophosphamide on days -4 and -1 with 150 mg/kg, and 100 mg/kg delivered intraperitoneally (IP), respectively. The inoculum of the testing strain, S. aureus Mu50 (VISA) ATCC 700699, was prepared from overnight agar plate cultures. To prepare bacterial inoculums, a portion of the plate was resuspended in sterile saline and adjusted to an OD of 0.12 at 625 nm. Next, the resulted bacterial suspension was further diluted to reach an infecting inoculum of 6.0×10^5 CFU per each mouse. Mice were inoculated with 100 μL of the prepared bacterial suspension via intramuscular injection into the right rear thigh. Plate counts of the inoculum were also performed in each case to confirm inoculum concentration and the actual inoculum size was 6.9×10^5 CFU/mouse. […] Test agent was then dosed via IV administration at 2, 8, 14, and 20 hours postinfection. Beginning at 2 hours, postinfection mice were dosed with either test article or positive control antibiotic. Mice receiving test agents were dosed intravenously at 10 mL/kg. Linezolid was delivered as a subcutaneous dose. Four animals were dosed per group. One group of 4 mice were euthanized at initiation of therapy (T = 2 hours) and CFUs determined. All remaining mice were euthanized at 26 hours postinfection. At termination, thighs were aseptically excised, weighed, and homogenized to a uniform consistency in 2 mL of sterile saline. The homogenate was serially diluted and plated on bacterial growth media. The CFUs were enumerated after overnight incubation.

The next data set is described as follows: in vitro. Conditions: human.
Data set [2] in a line: Pharmacokinetics measurement in skin tissue. Type of data set: in vivo, mice. Conditions: for Drug concentration in mouse skin tissue (individual mice) / Drug concentration in mouse skin tissue, Mean: 73 h, 3 days twice-a-day topical 20 μL ointment containing 2% drug; for Drug concentration in mouse skin tissue, Mean: n = 3; for skin concentration as multiple of the MIC in wild-type S. aureus VISA: topical treatment, mouse skin. As to the method:
Pharmacokinetics measurement of ULD1 and ULD2 in skin tissue was conducted parallelly with the mice dermal infection study. In all cases, skin tissue samples were collected at the termination and homogenized following the same method as homogenate preparation for bacterial enumeration. Before measurement, protein precipitation was performed by treating the samples with acetonitrile. Analytics were the performed by liquid chromatography coupled mass spectrometry (LC/MS/MS) on an AB SCIEX QTRAP mass spectrometer in electrospray, positive ions ionization mode, and with Multiple Reaction Monitoring scan mode. Samples were analyzed on a Phenomenex Luna 5u Phenyl-Hexyl 50 × 2.0 mm HPLC column in a mobile phase of A: acetonitrile/formic acid = 100/0.2 (v/v), and mobile phase of B: water / formic acid = 100/0.2 (v/v). The column’s temperature was set to 30 °C, the injection volumes were 10 μL, and measurement time was 5 minutes in all cases. Oxybutynin (0.01 ng/μL in acetonitrile) was used as an internal standard for the measurement. Finally, the concentration of the drug in tissue samples was calculated from the peak area ratio.

Data set [3] deals with multidrug-resistant Staphylococcus, Enterococcus, and Streptococcus isolates. The data set can be described thus: MIC against multidrug-resistant gram-positive isolates (summary). Type of data set: cell-based. To be noted: read-out: MIC values against all studied multidrug-resistant Staphylococcus, Enterococcus, and Streptococcus isolates. As to the method:
(§1) MICs were determined using a standard serial broth microdilution technique according to the CLSI guidelines. Briefly, bacterial strains were inoculated onto MHBII agar plates and were grown overnight at 37 °C. Next, 3 individual colonies from each strain were inoculated into 1 mL MHBII medium and propagated at 37 °C, 250 rpm overnight. In the cases of Enterococcus and Streptococcus sp., cells were plated to BHI agar plates, and BHI broth was used to determine MICs. […] Following dilutions, each well was seeded with 5×10^4 bacterial cells. All measurements were performed in 3 parallel replicates and to avoid possible edge effects in microwell plates, side rows (A and H) were filled with sterile medium. Following inoculations, plates were covered with lids and wrapped in polyethylene plastic bags to minimize evaporation but allow for O2 transfer. Plates were incubated at 37 °C under continuous shaking at 150 rpm for 18 hours. After incubation, OD600 of each well was measured using a BioTek Synergy 2 microplate reader.

For data set [4], the system named is S. aureus ATCC 700699 and S. aureus ATCC 43300. The data set can be described thus: Spontaneous frequency-of-resistance assay. In kind it is cell-based. Conditions: for mutant prevention concentration (MPC): S. aureus ATCC 700699 (VISA), estimate. As to the method: Prior to plating, bacteria were grown overnight in MHBII medium at 37 °C, 250 rpm, collected by centrifugation, and washed once in equal volumes of MHBII broth. From this concentrated cell suspension (250 μL), approximately 10^10 cells were then plated to each MHBII agarose plates. […] All experiments were performed in at least 3 replicates. Plates were grown at 37 °C for 72 hours. Total CFUs were determined simultaneously in each experiment by plating appropriate dilutions to antibiotic-free MHBII agar plates. Finally, resistance frequencies for each strain were calculated by dividing the number of colonies formed after a 72-hour incubation at 37 °C by the initial viable cell count.

In data set [5] the test system is Staphylococcus epidermidis. The experiment in a line: MIC, broth microdilution (CLSI). Type of data set: cell-based. Conditions: Staphylococcus epidermidis ATCC 51625, MRSE. As to the method:
as §1
In general terms: Dilution methods test growth across graded concentrations, often in twofold steps.

Data set [6] relates to novobiocin-resistant S. aureus VISA ATCC 700699 mutants. The data set can be described thus: MIC against novobiocin-resistant (novobiocin-adapted) strains. Type of data set: cell-based. To be noted: for MIC: Staphylococcus aureus. As to the method:
as §1

A further data set deals with human red blood cells. The experiment in a line: Haemolysis analysis. Conditions: for LDH activity: human red blood cells, 100 µg/mL; for hemolytic activity on human red blood cells: in words.
Setting [7] is: Staphylococcus aureus (MRSA) ATCC 43300, 2xMIC.
Where [8] appears, read: Staphylococcus aureus (MRSA) ATCC 43300, 4xMIC.
Where [9] appears, read: Staphylococcus aureus (MRSA) ATCC 43300, 8xMIC.
Where [10] appears, read: Staphylococcus aureus (VISA) ATCC 700699, 2xMIC.
Setting [11] is: Staphylococcus aureus (VISA) ATCC 700699, 4xMIC.
[12] abbreviates: Staphylococcus aureus (VISA) ATCC 700699, 8xMIC.
Setting [13] is: WT S. aureus VISA ATCC 700699, read-out: MIC.

Description for human red blood cells: Next, 600 μl of this EDTA-treated blood was washed in TBS buffer (10 mM TRIS, 150 mM NaCl [pH 7.2]) and centrifuged at 1,500 g for 1 minute until the supernatant became colorless. The aliquot of the final pellet (200 μL) was diluted to 5 mL with TBS buffer. […] Next, 100 μL of red blood cell suspension was pipetted into sterile Eppendorf tubes together with 100 μL of 2-fold serial dilution of the compounds (final concentration ranged between 100 μg/mL–0.1 μg/mL in a final volume of 200 μL). The plate was incubated for one hour at 37 °C followed by centrifugation at 1,500 g for 1 minute to sediment all red blood cells. Next, all supernatants were subjected to LDH and Haemolysis-Icterus-Lipaemia (HIL) index determination on a Roche Modular P800 analyzer according to the manufacturer’s instructions. After completion of this step the rest of the supernatants were transferred to sterile 96-well plates for the measurement of their optical density at 560-nm wavelength (in a Multiskan FC microplate reader, Thermo Scientific). Melittin (Bachem) at a concentration of 50 μg/mL, and TBS and 10% DMSO/TBS were served as positive (100% hemolysis) and negative (no hemolysis) controls, respectively.
Description for in vitro: Cytotoxicity of compounds on HepG2 and MCF-7 mammalian cell lines was determined by using a standard LDH assay. Briefly, HepG2 and MCF-7 cells were cultured in Eagle’s MEM medium (from Gibco) supplemented with 2 mM L-glutamine (Sigma), 100 U/mL penicillin (Sigma), and 100 μg/mL streptomycin (Sigma), and 10% FBS (Gibco) at 37 °C and under 5% CO2. Next, LDH assays were performed according to manufacturer instructions (Thermo Fisher Scientific, Massachusetts, USA). By using a CyQUANT LDH Cytotoxicity Assay Kit. Firstly, the cells were seeded in 96-well microtiter plates at 10^5 cells/mL (100 μL/well) and allowed to attach overnight. […] Lysis buffer (10 μL, Thermo Fisher Scientific) was then added to the maximal LDH activity control wells and incubated additional 45 minutes. The cell culture supernatant (50 μL) was then transferred to a new 96-well plate and mixed with 50 μL of the reaction mixture. After 30 minutes on room temperature, reactions were stopped with 50 μL of the Stop solution. Absorbance (490 nm and 680 nm) was measured with the automatic microplate reader Synergy 4 Hybrid Microplate Reader (BioTek, VT, USA). All experiments were performed in triplicates and repeated 3 times. Statistical significance (P < 0.05) was calculated with 2-tailed Welch’s t-test between treated groups and DMSO. The percentage of cytotoxicity was determined according to the following equation: %Cytotoxicity=(CompoundtreatedLDHactivity-SpontaneousLDHactivity/MaximumLDHactivity-SpontaneousLDHactivity)*100

In the case of `CC(=O)NC[C@H]1CN(c2ccc(N3CCOCC3)c(F)c2)C(=O)O1` [Linezolid], the “Log CFU/g thigh” value in data set [1] (50 mg/kg) was 5.65 Log CFU/g thigh and 6.12 Log CFU/g thigh and 4.95 Log CFU/g thigh.

As usually defined, the IC50 is the point on the concentration scale where inhibition reaches its midpoint. A lower IC50 goes with greater potency in that assay. By MIC is commonly meant the smallest concentration in the dilution series that meets the test's criterion for growth inhibition. With `Cc1[nH]c(C(=O)Nc2nc3ccc(C(=O)O)cc3s2)c(Cl)c1Cl` [ULD1], the IC50 in “in vitro” is more than 100 µM. Also, in data set [2], the “Drug concentration in mouse skin tissue (individual mice)” value was 8853 ng/mL and 14630 ng/mL and 6624 ng/mL. In addition, in data set [2], the “Drug concentration in mouse skin tissue, Mean” value is 10036 ng/mL. The “skin concentration as multiple of the MIC in wild-type S. aureus VISA” value in data set [2] was “up to 300 times the MIC”. In addition, the “antibacterial activity after intravenous administration” value in data set [1] (neutropenic murine thigh infection, S. aureus VISA, comparable to linezolid, in words) is on record as “potent antibacterial activity”. The “Log CFU/g thigh” value in data set [1] (10 mg/kg) was 7.54 Log CFU/g thigh and 7.91 Log CFU/g thigh and 8.09 Log CFU/g thigh and 8.46 Log CFU/g thigh; in data set [1] (25 mg/kg), 6.73 Log CFU/g thigh and 6.88 Log CFU/g thigh and 7.28 Log CFU/g thigh and 6.95 Log CFU/g thigh; in data set [1] (50 mg/kg), 5.41 Log CFU/g thigh and 5.69 Log CFU/g thigh. Further, the MIC in data set [3] was less than 2 µg/mL; in data set [5], 0.0625 µg/mL; in data set [6] (setting [13]) it was 0.04 µg/mL; in data set [6] (novobiocin-adapted Evolved 1), 0.016 µg/mL; in data set [6] (novobiocin-adapted Evolved 2) it was 0.125 µg/mL; in data set [6] (novobiocin-adapted Evolved 3), 0.016 µg/mL. Further, the MIC in data set [6] (novobiocin-adapted Evolved 4) is 0.25 µg/mL; in data set [6] (novobiocin-adapted Evolved 5), 0.063 µg/mL; in data set [6] (novobiocin-adapted Evolved 6) it was 0.063 µg/mL; in data set [6] (novobiocin-adapted Evolved 7) it was 0.125 µg/mL; in data set [6] (novobiocin-adapted Evolved 8), 0.125 µg/mL; in data set [6] (novobiocin-adapted Evolved 9), 0.016 µg/mL. Moreover, in data set [4], the “mutant prevention concentration (MPC)” value was 0.16 µg/mL. Moreover, the “Spontaneous frequency-of-resistance (replicates)” value in data set [4] (setting [7]) was 2e-9 and 2.769e-9 and 5.333e-10 and 1.1e-9 and 1.263e-9 and 2.587e-9 and 2.787e-9 and 2.50E-09 and 3.14E-09 and 4.80E-09; in data set [4] (setting [8]), 9.286e-10 and 7.692e-10 and 1.333e-10 and 5e-10 and 9.868e-10 and 1.045e-9 and 7.377e-10 and 1.30E-09 and 9.54E-10 and 1.09E-08 and 7.14E-11; in data set [4] (setting [9]), 1.00E-12; in data set [4] (setting [10]) it was 2.06e-9 and 1.815e-9 and 2.326e-9 and 1.86e-9 and 1.40E-09 and 7.33E-10 and 2.00E-09 and 1.64E-09 and 3.594e-9 and 2.426e-9; in data set [4] (setting [11]) it was 1.00E-12 and 3.109e-10 and 2.252e-10 and 3.243e-10 and 3.9801e-10 and 2.304e-10 and 2.871e-10 and 1.676e-10; in data set [4] (setting [12]), 1.00E-12. For the same compound, the resistant variants detected entry in data set [4] (exposure at 8-fold the wild-type MIC, S. aureus, in words) was “no resistant variants of S. aureus have been detected”. For the same compound, in data set [6] (9 independently evolved novobiocin-resistant isolates), the “decrease in susceptibility compared with wild-type strain” value is given as “up to 6 fold”. In addition, the LDH activity in the data set with human red blood cells is given as 40 Unit/mL. Also, in the data set on human red blood cells, the “hemolytic activity on human red blood cells” value is listed as “no biocompatibility concerns”.

The compound `Cc1[nH]c(C(=O)Nc2nc3c(OCc4ccccc4)cc(C(=O)O)cc3s2)c(Cl)c1Cl` [ULD2] gave an IC50 in “in vitro” of more than 100 µM. In addition, the “Drug concentration in mouse skin tissue (individual mice)” value in data set [2] was 4224 ng/mL and 6654 ng/mL and 10244 ng/mL. In addition, the “Drug concentration in mouse skin tissue, Mean” value in data set [2] turned out to be 7041 ng/mL. Moreover, the “skin concentration as multiple of the MIC in wild-type S. aureus VISA” value in data set [2] is “up to 300 times the MIC”. Also, the MIC was less than 2 µg/mL in data set [3]; 0.02 µg/mL in data set [6] (setting [13]); 0.016 µg/mL in data set [6] (novobiocin-adapted Evolved 1); 0.016 µg/mL in data set [6] (novobiocin-adapted Evolved 2); 0.016 µg/mL in data set [6] (novobiocin-adapted Evolved 3); 0.063 µg/mL in data set [6] (novobiocin-adapted Evolved 4). Besides, the MIC in data set [6] (novobiocin-adapted Evolved 5) was 0.031 µg/mL; in data set [6] (novobiocin-adapted Evolved 6), 0.016 µg/mL; in data set [6] (novobiocin-adapted Evolved 7), 0.016 µg/mL; in data set [6] (novobiocin-adapted Evolved 8), 0.016 µg/mL; in data set [6] (novobiocin-adapted Evolved 9), 0.016 µg/mL. The resistant mutants emerged result in data set [4] (4×10^12 S. aureus ATCC 700699 (VISA) cells, 4 times the wild-type MIC, in words) is reported as “no ULD2 resistant mutants have emerged”. The “mutant prevention concentration (MPC)” value in data set [4] is 0.08 µg/mL. Further, the “Spontaneous frequency-of-resistance (replicates)” value in data set [4] (setting [7]) is 1.00E-12 and 1.529e-10 and 1.99e-10 and 7.692e-11 and 9.00E-10 and 1.80E-09 and 1.43E-10; in data set [4] (setting [8]), 5.00E-11 and 1.67E-10 and 7.14E-11 and 1.00E-12; in data set [4] (setting [9]), 1.00E-12; in data set [4] (setting [10]) it was 1.00E-12 and 8.77E-11; in data set [4] (setting [11]), 1.00E-12; in data set [4] (setting [12]) it was 1.00E-12. Further, the “cross-resistance of novobiocin-resistant isolates” value in data set [6] (9 independently evolved novobiocin-resistant isolates, in words) is recorded as “no cross-resistance”. Moreover, in the data set with human red blood cells, the LDH activity worked out at 10 Unit/mL. In the data set with human red blood cells, the “hemolytic activity on human red blood cells” value is “no biocompatibility concerns”.
